What was measured:
[1] = test system: V79 cells; test: Colony formation, survival fraction of V79 cells; format: cell-based, Chinese hamsters; details: SQAP not administered
Protocol: (§1) An anti-cancer agent and a pharmaceutical composition were administered to test cells and then the cells were cultured. Then, after colonies were formed, the number of colonies was counted. Here, samples in which the concentration of the anti-cancer agent to be administered was varied were prepared, and in each sample, the survival fraction of the cells compared with the case where cells were cultured without administration of the pharmaceutical composition was measured. Regarding the type of anti-cancer agent to be administered, a predetermined anti-cancer agent was selected depending on the type of administration target cells. Note that cells that were cultured without administration of the pharmaceutical composition and the anti-cancer agent were used as a control. Hereinafter, these steps will be described.
(§2) Here, CHO cells, V79 cells, and canine-derived cancer cells were prepared as the test cells. The CHO cells are ovarian cells derived from Chinese hamsters, and the V79 cells are fibroblasts derived from the lungs of Chinese hamsters. Melanoma developing cells (CML6M) and soft tissue sarcoma developing cells (STSA-1) were used as the cancer cells.
(§3) The cancer cells were prepared by being cultured using an αMEM culture medium supplemented with 10% serum and an antibiotic. The cancer cells were prepared such that, when the concentration of the cells in a cell suspension obtained by subjecting the cultured cells to PBS washing and trypsin treatment, the concentration was within a predetermined concentration range. Here, the predetermined concentration ranges were 300 cells/well, 100 to 150 cells/well, and 500 to 1000 cells/well for the CHO/V79 cells, the melanoma cells, and the soft tissue sarcoma cells, respectively.
(§4) Next, the cancer cells were cultured in culture environments to which the anti-cancer agent was added at various concentrations, and were then allowed to form colonies. The culture periods for colony formation were a week, 10 days, and 14 days for CHO and V79, melanoma, and soft tissue sarcoma, respectively. After colonies were formed, washing using a physiological saline solution, fixation using 100% ethanol, and staining using 0.1% crystal violet were performed, and then the number of colonies per well was counted under a microscope. Note that, here, the colony was defined as containing 50 or more cells. […]
A graph with the horizontal axis representing the concentration of the anti-cancer agent and the vertical axis representing the survival fraction was created by plotting the survival fraction measurement results relative to the SQAP administration amounts, and the effect of the addition of SQAP on the survival fraction was examined. Hereinafter, the results from each anti-cancer agent will be shown in a table and described. […]
V79 cells were used as the cells, and cisplatin was used as the anti-cancer agent. The cisplatin was administered at concentrations of 0 μg/mL, 0.1 μg/mL, 0.2 μg/mL, 0.3 μg/mL, 0.4 μg/mL, and 0.5 μg/mL.
V79 cells were used as the cells, and camptothecin was used as the anti-cancer agent. The amount of the camptothecin was set to 0 nM, 5 nM, 10 nM, 15 nM, and 20 nM.
V79 cells were used as the cells, and mitomycin C was used as the anti-cancer agent. The amount of MMC was set to 0 nM, 100 nM, 200 nM, 300 nM, 400 nM, and 500 nM. […]
V79 cells were used as the cells, and taxol was used as the anti-cancer agent. The amount of the taxol was set to 0 nM, 10 nM, 20 nM, and 30 nM.
V79 cells were used as the cells, and MMS was used as the anti-cancer agent. The amount of the MMS was set to 0 μM, 10 μM, 20 μM, 30 μM, and 40 μM.
(§5) In the above examples, the anti-cancer agent and the pharmaceutical composition were administered to the test cells and then the cells were cultured. […]

[2] = test system: CHO cells; test: Colony formation, survival fraction of CHO cells; format: cell-based, Chinese hamsters; details: mitomycin C 500 nM, SQAP not administered
Protocol: as §1, §2, §3, §4
In the above examples, the anti-cancer agent and the pharmaceutical composition were administered to the test cells and then the cells were cultured. In this example, test cells were cultured after administering pharmaceutical composition (SQAP) alone without administering the anti-cancer agent to the test cells, and then the number of colonies was counted after colonies were formed. […]

[3] = test system: angiogenesis; details: in combination with radiation; cited from earlier work
[4] = test system: human colon adenocarcinoma; details: in combination with radiation; mouse with transplanted human colon adenocarcinoma; cited from earlier work
[5] = test system: human esophageal squamous cell carcinoma; details: in combination with radiation; mouse with transplanted human esophageal squamous cell carcinoma; cited from earlier work
[6] = test system: soft tissue sarcoma developing cells (STSA-1); test: Colony formation, survival fraction of canine soft tissue sarcoma cells; format: cell-based; details: soft tissue sarcoma cells; doxorubicin 10 nM, SQAP not administered
Protocol: as §1, §2, §3
(§6) Next, the cancer cells were cultured in culture environments to which the anti-cancer agent was added at various concentrations, and were then allowed to form colonies. The culture periods for colony formation were a week, 10 days, and 14 days for CHO and V79, melanoma, and soft tissue sarcoma, respectively. After colonies were formed, washing using a physiological saline solution, fixation using 100% ethanol, and staining using 0.1% crystal violet were performed, and then the number of colonies per well was counted under a microscope. Note that, here, the colony was defined as containing 50 or more cells. Moreover, mitomycin C, doxorubicin, bleomycin, camptothecin, etoposide, taxol, methyl methanesulfonate, and cisplatin were used as the anti-cancer agent.
(§7) A graph with the horizontal axis representing the concentration of the anti-cancer agent and the vertical axis representing the survival fraction was created by plotting the survival fraction measurement results relative to the SQAP administration amounts, and the effect of the addition of SQAP on the survival fraction was examined. Hereinafter, the results from each anti-cancer agent will be shown in a table and described.
Canine-derived melanoma cells and soft tissue sarcoma cells were used as the cells, and doxorubicin was used as the anti-cancer agent. The amount of the doxorubicin administered to the melanoma cell was set to 0 nM, 5 nM, 10 nM, 15 nM, 20 nM, and 25 nM. […] In Table 2, survival fractions in the case where SQAP was not administered are shown with a solid line, survival fractions in the case where SQAP was administered at a concentration of 10 μM are shown with a broken line, survival fractions in the case where SQAP was administered at a concentration of 20 μM are shown with a 1-dot chain line, and survival fractions in the case where SQAP was administered at a concentration of 30 μM are shown with a 2-dot chain line.
as §5

[7] = test system: Melanoma developing cells (CML6M); test: Colony formation, survival fraction of canine melanoma cells; format: cell-based; details: melanoma cells; doxorubicin 15 nM, SQAP not administered
Protocol: as §1, §2, §3, §6, §7
Canine-derived melanoma cells and soft tissue sarcoma cells were used as the cells, and doxorubicin was used as the anti-cancer agent. […] Also, the concentration of the doxorubicin administered to the soft tissue sarcoma cells was set to 0 nM, 5 nM, 10 nM, and 15 nM. […] In Table 2, survival fractions in the case where SQAP was not administered are shown with a solid line, survival fractions in the case where SQAP was administered at a concentration of 10 μM are shown with a broken line, survival fractions in the case where SQAP was administered at a concentration of 20 μM are shown with a 1-dot chain line, and survival fractions in the case where SQAP was administered at a concentration of 30 μM are shown with a 2-dot chain line.
as §5

Compound: CC[C@@]1(O)C(=O)OCc2c1cc1n(c2=O)Cc2cc3ccccc3nc2-1 [camptothecin, reference compound]
- survival fraction ([1]; camptothecin 20 nM): about 15%

Compound: CO[C@@]12[C@H](COC(N)=O)C3=C(C(=O)C(C)=C(N)C3=O)N1C[C@@H]1N[C@@H]12 [mitomycin C, reference compound]
- survival fraction ([1]; mitomycin C 500 nM): about 50%
- survival fraction [2]: about 40%

Compound: CCCCCCCCCCCCCCCCCC(=O)OCCCO[C@H]1O[C@H](CS(=O)(=O)[O-])[C@@H](O)[C@H](O)[C@H]1O.[Na+] [αSQAP C18:0]
- angiogenesis in an in-vitro test [3]: inhibited
- increase in a tumor volume [4]: suppressed
- increase in a tumor volume [5]: suppressed

Compound: CCCCCCCCCC(=O)OCCCO[C@H]1O[C@H](CS(=O)(=O)[O-])[C@@H](O)[C@H](O)[C@H]1O.[Na+] [αSQAP C10:0]
- angiogenesis in an in-vitro test [3]: inhibited

Compound: CCCCCCCCCCCCCC(=O)OCCCO[C@H]1O[C@H](CS(=O)(=O)[O-])[C@@H](O)[C@H](O)[C@H]1O.[Na+] [αSQAP C14:0]
- angiogenesis in an in-vitro test [3]: inhibited

Compound: COc1cccc2c1C(=O)c1c(O)c3c(c(O)c1C2=O)C[C@@](O)(C(=O)CO)C[C@@H]3O[C@H]1C[C@H](N)[C@H](O)[C@H](C)O1 [doxorubicin, reference compound]
- survival fraction [6]: about 6%
- survival fraction [7]: about 20%

Compound: CC(=O)O[C@H]1C(=O)[C@@]2(C)[C@H]([C@H](OC(=O)c3ccccc3)[C@]3(O)C[C@H](OC(=O)[C@H](O)[C@@H](NC(=O)c4ccccc4)c4ccccc4)C(C)=C1C3(C)C)[C@]1(OC(C)=O)CO[C@@H]1C[C@@H]2O [taxol, reference compound]
- survival fraction ([1]; taxol 30 nM): about 5%

Compound: bleomycin [reference compound]
- survival fraction ([1]; bleomycin 15 nM): about 40%

Compound: COc1cc([C@@H]2c3cc4c(cc3[C@@H](O[C@@H]3O[C@@H]5CO[C@@H](C)O[C@H]5[C@H](O)[C@H]3O)[C@H]3COC(=O)[C@H]23)OCO4)cc(OC)c1O [etoposide, reference compound]
- survival fraction ([1]; etoposide 30 nM): about 30%

Compound: N.N.[Cl][Pt][Cl] [cisplatin, reference compound]
- survival fraction ([1]; cisplatin 0.3 μg/mL): about 40%

Compound: COS(C)(=O)=O [MMS, methyl methanesulfonate, reference compound]
- survival fraction ([1]; MMS 40 μM): about 40%

Compound: CCCCCCCCCCCCCCCCCCCCCC(=O)OCCCO[C@H]1O[C@H](CS(=O)(=O)[O-])[C@@H](O)[C@H](O)[C@H]1O.[Na+] [αSQAP C22:0]
- angiogenesis in an in-vitro test [3]: inhibited

Compound: CCCCCCCCCCCCCCCCCC(=O)OCCCO[C@@H]1O[C@H](CS(=O)(=O)[O-])[C@@H](O)[C@H](O)[C@H]1O.[Na+] [βSQAP C18:0]
- angiogenesis in an in-vitro test [3]: inhibited

Reference: US20240131044A1, “METHOD FOR TREATING CANCER” (M.T.3, Inc., priority 2022, published 2024)
